According to patent US20090275474A1, “PESTICIDAL APPLICATIONS OF DIMETHYL CYANAMIDE” (Metbro Distributing L.P., priority 2008, published 2009):
Entries after “also recorded” stand apart in the source; their conditions may differ.

Legend:
Type in all cases: in vivo
[1] = system: dorylaimida (predatory, not plant parasitic nematodes); assay: Example 2 pot test, soil populations of dorylaimida; settings: soil drench 20-150 mgs. A.I./kg soil
Description: (§1) Dimethyl cyanamide and diisopropyl cyanamide (both obtained from Aldrich) were delivered in aqueous preparations (1.25% active ingredient) (A.I.) prepared immediately before use by diluting in demineralized water while stirring with a magnetic stirrer. […] Each compound was delivered at rates of 0, 20, 40, 60, 80, 100, and 150 mgs. A.I./kg soil—equivalent to […].
(§2) Each treatment was delivered by drenching in 100 mL aqueous volume onto the soil surface in pots (10-cm diam.; PVC) containing 1 kg soil. The soil (silt loam; pH 6.2; cec<10 meq/100 gm soil; org. matter<1.0%) was from a cotton field severely infested with the reniform nematode [Rotylenchulus reniformis]. Immediately after treatment the pots were covered by a thick (1.5 mil) clear low density polyethylene bag held tight against the outer wall of the pot by a rubber band. Eleven days after application the bags were removed and soil samples were taken from every pot (experimental unit) for nematological analysis (salad bowl incubation technique). […] Final root and soil nematode populations were determined and plant growth parameters (number and height of plants, weights of shoots and roots, root condition indices) were recorded. […]

[2] = system: beneficial microbivorous nematodes; assay: Example 2 pot test, microbivorous nematodes in soil; settings: soil drench 20-150 mgs. A.I./kg soil
Description: as §1, §2

[3] = system: reniform nematode (Rotylenchulus reniformis); assay: Example 1 pot test, soil drench, reniform nematode in soil and soybean roots; settings: for nematicidal activity against the reniform nematode in soil and soybean roots: soil drench 25-200 mg A.I./kg soil, soil sampled 11 days after application and after eight weeks of soybean growth, FIGS. 1-6
Description: (§3) Hydrogen cyanamide (Dormex® formulation, Dormex Corp.) and dimethyl cyanamide (Aldrich) were delivered in aqueous preparations (1.25% active ingredient) (A.I.) prepared immediately before use by diluting in demineralized water while stirring with a magnetic stirrer. Each compound was delivered at rates of 0, 25, 50, 75, 100, 150, and 200 mg A.I./kg soil—equivalent to 0, 50, 100, 150, 200, 300, and 400 lbs A.I./acre.
Each treatment was delivered by drenching the compound in 100 mL aqueous volume onto the soil surface in pots (10-cm diam.; PVC) containing 1 kg soil. The soil (silt loam; pH 6.2; cec<10 meq/100 gm soil; org. matter<1.0%) was from a cotton field severely infested with the reniform nematode (Rotylenchulus reniformis). Immediately after treatment the pots were covered with a thick (1.5 mil) clear low density polyethylene bag held tight against the outer wall of the pot by a rubber band. Eleven days after application the bags were removed and soil samples were taken from every pot (experimental unit) for nematological analysis (salad bowl incubation technique). Each pot was then planted with five seeds of nematode-susceptible “Hutcheson” soybean (glycine max) and the resulting plants were grown for eight weeks, at which time the plants were removed and soil samples were taken from each pot. Final root and soil nematode populations were determined and plant growth parameters (number & height of plants, weights of shoots and roots, root condition indices) were recorded.
Major pests: The reniform nematode [Rotylenchulus reniformis].
(§4) Experimental design: Randomized complete block with seven replications/treatment.
(§5) Statistical analyses: ANOVA and Fischer's least significant difference [FLSD] at p 0.05. Regression analyses.

[4] = system: dorylaimida (predatory, not plant parasitic nematodes); assay: Example 1 pot test, soil populations of dorylaimida; settings: soil drench 25-200 mg A.I./kg soil
Description: as §3
as §2, with “drenching the compound” for “drenching”, “nematode (Rotylenchulus reniformis).” for “nematode [Rotylenchulus reniformis].”, “covered with” for “covered by”, “(number &” for “(number and”

[5] = system: beneficial microbivorous nematodes; assay: Example 1 pot test, microbivorous nematodes in soil; settings: soil drench 25-200 mg A.I./kg soil
Description: as §3
as §2, with “drenching the compound” for “drenching”, “nematode (Rotylenchulus reniformis).” for “nematode [Rotylenchulus reniformis].”, “covered with” for “covered by”, “(number &” for “(number and”

[6] = system: "Hutcheson" soybean (glycine max); assay: Example 1 pot test, growth of soybean plants in nematode-infested soil; settings: after eight weeks of growth
Description: as §3
as §2, with “drenching the compound” for “drenching”, “nematode (Rotylenchulus reniformis).” for “nematode [Rotylenchulus reniformis].”, “covered with” for “covered by”, “(number &” for “(number and”

[7] = system: reniform nematode [Rotylenchulus reniformis]; assay: Example 2 pot test, soil drench, reniform nematode in soil; settings: soil drench 20-150 mgs. A.I./kg soil; FIGS. 7-10
Description: as §1, §2

[8] = system: "Rowden" cotton (Gossipyum hirsutum); assay: Example 2 pot test, growth and root health of cotton plants in nematode-infested soil
Description: as §1
Each treatment was delivered by drenching in 100 mL aqueous volume onto the soil surface in pots (10-cm diam.; PVC) containing 1 kg soil. The soil (silt loam; pH 6.2; cec<10 meq/100 gm soil; org. matter<1.0%) was from a cotton field severely infested with the reniform nematode [Rotylenchulus reniformis]. Immediately after treatment the pots were covered by a thick (1.5 mil) clear low density polyethylene bag held tight against the outer wall of the pot by a rubber band. Eleven days after application the bags were removed and soil samples were taken from every pot (experimental unit) for nematological analysis (salad bowl incubation technique). Each pot was then planted with five seeds of nematode-susceptible “Rowden” cotton (Gossipyum hirsutum) and the resulting plants were grown for eight weeks, at which time the plants were removed and soil samples were taken from each pot. Final root and soil nematode populations were determined and plant growth parameters (number and height of plants, weights of shoots and roots, root condition indices) were recorded.
as §4
Statistical analyses: ANOVA and Fischer's least significant difference [FLSD] at p
0.05. Regression analyses.

[9] = system: Yellow nutsedge [Cyperus esculentus], crabgrass [Digitaria sanguinalis], sicklepod [Senna obtusifolia], morningglory [Ipomoea spp.], and other annual weeds; assay: Example 3 herbicidal pot test, soil drench, weed counts; settings: for herbicidal activity against all weed species tested: soil drench 100-800 mgs. A.I./kg soil, weed counts 11, 19, 26 and 32 days after application, FIGS. 11-12
Description: Hydrogen cyanamide and dimethyl cyanamide were delivered in aqueous 5% solutions prepared immediately before use by diluting in demineralized water while stirring with a magnetic stirrer. Both chemicals were obtained from Aldrich. Each compound was delivered at rates of 0, 100, 200, 300, 400, 600, and 800 mgs. A.I./kg soil—equivalent to 0, 200, 400, 600, 800, 1200, and 1600 lbs A.I./acre.
(§6) Each treatment was delivered by drenching in 100 mL aqueous volume onto the soil surface in pots [10-cm diam.; PVC] containing 1 kg soil. The soil was from a cotton field [silt loam; ph 6.2; cec<10 meq/100 gm soil; org. matter<1.0%]. Immediately after treatment the pots were covered by a thick [1.5 mil] clear low density polyethylene bag held tight against the outer wall of the pot by a rubber band. Eleven days after application the bags were removed. Weed counts were taken from each pot [experimental unit] at 11, 19, 26 and 32 days after application of the treatments.
Major pests: Yellow nutsedge [Cyperus esculentus], crabgrass [Digitaria sanguinalis], sicklepod [Senna obtusifolia], morningglory [Ipomoea spp.], and other annual weeds.
Experimental design: Randomized complete block with seven replications/treatments.
as §5

[10] = system: Yellow nutsedge [Cyperus esculentus], crabgrass [Digitaria sanguinalis], sicklepod [Senna obtusifolia], morningglory [Ipomoea spp], and other annual weeds; assay: Example 4 herbicidal pot test, dimethyl cyanamide alone and in combination with EPTC, weed counts
Description: Dimethyl cyanamide was delivered in a 5% aqueous solution. The herbicide EPTC [ethyl n-propyl thiocarbamate] was delivered in an aqueous emulsion containing 0.1192% A.I. Both formulations were prepared immediately before use by diluting or mixing [a concentrated formulation?] in demineralized water while stirring with a magnetic stirrer. The dimethyl cyanamide was obtained from Aldrich. The EPTC used was a commercial formulation [Eptam® herbicide, Gowan].
Dimethyl cyanamide was applied at rates of 0, 50, 100, 200, 300, and 400 mg A.I./kg soil—equivalent to 0, 100, 200, 400, 600, and 800 lbs A.I./acre, respectively. EPTC was delivered at 0 and 3.576 mg/kg soil, equivalent to 0 and approximately 7 lbs. A.I./acre. All possible combinations of the two compounds at their corresponding rates were included in the experiment.
as §6, with “matter<1.0%1.” for “matter<1.0%].”, “Six” for “Eleven”, “6, 12, 17, 47,” for “11, 19, 26”, “62” for “32”, “treatments. […]” for “treatments.”

SMILES	soil populations of dorylaimida [1]	soil populations of beneficial microbivorous nematodes [2]	effectiveness as a nematicide relative to hydrogen cyanamide ([3]; considered in terms of the rates of cyanamide anion applied)	overall results on delivery at the same rate (kg/ha) as hydrogen cyanamide ([3]; same weight rate, hydrogen cyanamide contains approximately 1.66 times as much cyanamide (NCN group))	nematicidal activity against the reniform nematode in soil and soybean roots [3]	soil populations of dorylaimida [4]	effect on beneficial microbivorous nematodes [5]	soybean plant height and weights of shoots and roots, compared with pots treated with hydrogen cyanamide [6]	nematicidal activity against the reniform nematode in soil [7]	root health as indicated by root appearance indices ([8]; dimethyl cyanamide: two highest rates, diisopropyl cyanamide: any rate)	number of cotton plants/pot, dimethyl cyanamide vs diisopropyl cyanamide ([8]; in vivo)	cotton plant heights and shoot and root weights ([8]; two highest rates, after eight weeks)	herbicidal activity compared with hydrogen cyanamide ([9]; dose-response expressed in terms of mg of CN added to the soil, one exception (sicklepod))	herbicidal activity against all weed species tested [9]	herbicidal activity of dimethyl cyanamide during the initial counts in the presence of EPTC [10]	root populations of the reniform nematode, compared between the two compounds ([3]; soybean roots after eight weeks, hydrogen cyanamide vs dimethyl cyanamide)
CC(C)N(C#N)C(C)C [diisopropyl cyanamide, reference compound]	either reduced or not affected	either reduced or not affected	–	–	–	–	–	–	–	–	–	–	–	–	–	–
CN(C)C#N [dimethyl cyanamide, Dimethyl cyanamide]	either reduced or not affected	either reduced or not affected	more effective as a nematicide than hydrogen cyanamide	very similar results overall	nematicidal, resulting in suppression or elimination of the reniform nematode in soil and soybean roots; also recorded: powerful nematicide	similarly reduced	not significantly affected	taller and with heavier shoots and roots	nematicidal, resulting in suppression or elimination of the reniform nematode in soil; also recorded: powerful nematicide	markedly improved	higher	concomitant increase	superior to hydrogen cyanamide as a herbicide	herbicidal against all weed species tested; also recorded: considerable herbicidal activity equivalent to or better than that shown by hydrogen cyanamide	almost “masked” by that of EPTC	–
N#CN [hydrogen cyanamide, Hydrogen cyanamide, reference compound]	–	–	–	–	nematicidal, resulting in suppression or elimination of the reniform nematode in soil and soybean roots	similarly reduced	not significantly affected	–	–	–	–	–	–	herbicidal against all weed species tested	–	lower
